ChEMBL document CHEMBL1201862, “PubChem BioAssay data set” (2004)
Calls of active or inactive are those of the source.

Legend:
[1] = biological target: T1, Caspase-6 (Homo sapiens, UniProt P55212); assay: inhibition of CASP6 peptide cleavage – biochemical, VEID-R110 fluorescence, cherry-pick, dose response (AID 720632)
T1 sequence (P55212 whole entry): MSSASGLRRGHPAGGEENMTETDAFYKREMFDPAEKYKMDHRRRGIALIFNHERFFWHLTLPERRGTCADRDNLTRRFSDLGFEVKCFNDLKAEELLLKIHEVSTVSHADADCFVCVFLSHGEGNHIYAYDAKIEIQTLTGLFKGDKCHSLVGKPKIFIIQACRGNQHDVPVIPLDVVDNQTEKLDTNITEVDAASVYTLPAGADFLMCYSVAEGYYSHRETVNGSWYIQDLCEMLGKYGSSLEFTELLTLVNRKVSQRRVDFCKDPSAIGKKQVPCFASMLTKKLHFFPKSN

[2] = biological target: Polyadenylate-binding protein 1 (Homo sapiens, UniProt P11940); assay: blockers of PABP interaction with poly(A) – biochemical, fluorescence polarization, […] (AID 2014)
[3] = biological target: Albumin (Bos taurus, UniProt P02769); assay: Counterscreen for inhibitors of T-cell receptor (TCR)-CD3 interaction: Fluorescence-based biochemical high throughput dose response assay to identify inhibitors of T-cell receptor (TCR)-CD3 interaction using a TAMRA-labeled BSA probe.; type: functional
[4] = biological target: Eukaryotic translation initiation factor 4H (Homo sapiens, UniProt Q15056); assay: eIF4H binding inhibition – biochemical, uHTS, fluorescence polarization, translation initiation inhibitor project, primary screen (AID 2012)
[5] = biological target: Large T antigen (Simian virus 40, UniProt P03070); type: functional, Betapolyomavirus macacae;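 further: Confirmatory-stage PubChem screen for compounds that inhibit SV40 T antigen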
[6] = biological target: T2, Alkaline phosphatase, tissue-nonspecific isozyme (Homo sapiens, UniProt P05186); assay: activation of tissue-nonspecific alkaline phosphatase – biochemical, TNAP isozyme, mouse IAP uHTS hits, selectivity assay for mouse IAP activator project, dose response (AID 488880); type: functional
T2 sequence (P05186 whole entry): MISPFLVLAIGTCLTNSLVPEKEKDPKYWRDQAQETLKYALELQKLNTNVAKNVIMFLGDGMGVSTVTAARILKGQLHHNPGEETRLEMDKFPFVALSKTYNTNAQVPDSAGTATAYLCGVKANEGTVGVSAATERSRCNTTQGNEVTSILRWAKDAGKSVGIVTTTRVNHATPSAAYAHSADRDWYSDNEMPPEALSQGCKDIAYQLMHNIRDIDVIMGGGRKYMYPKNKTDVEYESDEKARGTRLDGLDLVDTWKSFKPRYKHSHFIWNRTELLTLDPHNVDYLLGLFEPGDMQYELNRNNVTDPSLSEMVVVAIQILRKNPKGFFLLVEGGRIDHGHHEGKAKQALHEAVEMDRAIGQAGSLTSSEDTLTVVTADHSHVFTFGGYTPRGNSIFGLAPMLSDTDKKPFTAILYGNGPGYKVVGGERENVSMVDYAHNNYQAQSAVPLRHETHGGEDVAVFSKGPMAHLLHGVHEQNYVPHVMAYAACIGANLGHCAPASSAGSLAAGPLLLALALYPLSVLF

[7] = biological target: Caspase-7 (Homo sapiens, UniProt P55210); assay: caspase-7 enzyme inhibition, selectivity check – biochemical, DEVD-R110 fluorescence, cherry-pick, selectivity assay for caspase-6 inhibitor project, dose response (AID 743295); type: functional
[8] = biological target: Intestinal-type alkaline phosphatase (Mus musculus, UniProt P24822); assay: mouse intestinal alkaline phosphatase activators, dose response, biochemical, luminescence, uHTS hits (AID 488783); type: functional
[9] = biological target: Intestinal-type alkaline phosphatase (Homo sapiens, UniProt P09923); assay: activation of human intestinal alkaline phosphatase – biochemical, dose response (AID 488873); type: functional
[10] = biological target: Ras and Rab interactor 1/Tyrosine-protein kinase ABL1 (Homo sapiens, UniProt P00519+Q13671); type: functional;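 further: biochemical TR-FRET dose-response test measuring inhibition of binding between Rin1 and Abl proteins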
[11] = biological target: Induced myeloid leukemia cell differentiation protein Mcl-1 (Homo sapiens, UniProt Q07820); type: functional
[12] = biological target: T3, G-protein coupled receptor 55 (Homo sapiens, UniProt Q9Y2T6); assay: inhibition of LPI-stimulated GPR55 beta-arrestin translocation – imaging, U2OS, beta-arrestin-GFP, LPI agonist, primary screen (AID 2013); type: functional;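 further: antagonist potency measured as reduced agonist-driven arrestin aggregation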
[13] = biological target: T4, Streptokinase A (Streptococcus pyogenes serotype M1, UniProt P10520); assay: viability-normalized secreted streptokinase activity reduction – plasminogen activation absorbance, OD405, dose response (AID 1914); type: functional, Streptococcus pyogenes M1 GAS;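 further: secreted streptokinase activity via plasminogen activation per viability signal from cell pellet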
T4 sequence (P10520 whole entry): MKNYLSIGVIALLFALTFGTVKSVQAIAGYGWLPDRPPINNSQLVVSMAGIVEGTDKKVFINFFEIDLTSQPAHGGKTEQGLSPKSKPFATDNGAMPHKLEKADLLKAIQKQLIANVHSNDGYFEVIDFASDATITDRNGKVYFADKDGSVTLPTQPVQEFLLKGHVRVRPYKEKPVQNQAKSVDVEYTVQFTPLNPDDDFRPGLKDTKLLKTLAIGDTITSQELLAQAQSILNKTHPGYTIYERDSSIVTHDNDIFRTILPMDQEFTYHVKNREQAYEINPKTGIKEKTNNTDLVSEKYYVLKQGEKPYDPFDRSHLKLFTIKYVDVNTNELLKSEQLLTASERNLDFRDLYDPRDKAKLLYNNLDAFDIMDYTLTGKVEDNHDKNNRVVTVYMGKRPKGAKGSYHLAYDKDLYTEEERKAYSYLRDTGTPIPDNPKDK

[14] = biological target: T5, Cannabinoid receptor 2 (Homo sapiens, UniProt P34972); assay: SAR analysis of agonists of the Cannabinoid Receptor 2 using an Image-Based Assay. [Related pubchem assays (depositor defined):AID2013, AID2026]; type: functional
[15] = biological target: T6, G-protein coupled receptor 35 (Homo sapiens, UniProt Q9HC97); assay: SAR analysis of Agonists of the GPR35 Receptor using an Image-Based Assay - Set 2. [Related pubchem assays (depositor defined):AID2013, AID2026]; type: functional
[16] = biological target: T7, Cannabinoid receptor 1 (Homo sapiens, UniProt P21554); assay: SAR analysis of agonists of the Cannabinoid Receptor 1 using an Image-Based Assay - Set 2. [Related pubchem assays (depositor defined):AID2013, AID2026]; type: functional
[17] = biological target: T7, Cannabinoid receptor 1; assay: SAR analysis of antagonists of the Cannabinoid Receptor 1 using an Image-Based Assay - Set 2. [Related pubchem assays (depositor defined):AID2013, AID2026]; type: functional
[18] = biological target: T6, G-protein coupled receptor 35; assay: SAR analysis of Antagonists of the GPR35 Receptor using an Image-Based Assay - Set 3. [Related pubchem assays (depositor defined):AID2013, AID2026]; type: functional
[19] = biological target: T5, Cannabinoid receptor 2; assay: SAR analysis of antagonists of the Cannabinoid Receptor 2 using an Image-Based Assay. [Related pubchem assays (depositor defined):AID2013, AID2026]; type: functional
[20] = biological target: T3, G-protein coupled receptor 55; assay: blockade of LPI-induced GPR55 arrestin translocation – imaging, U2OS, beta-arrestin-GFP, LPI agonist, set 2, SAR follow-up (AID 2820); type: functional
[21] = biological target: Delta-type opioid receptor (Homo sapiens, UniProt P41143); assay: SAR Analysis of Antagonists of the DOR Receptor using an Image-Based Assay - Set 3. [Related pubchem assays (depositor defined):AID1777, AID1785]; type: functional;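 further: U2OS cells expressing DOR1 and beta-arrestin GFP stimulated with 100 nM SNC80; imaging of GFP-tagged beta-arrestin moving into spots after receptor activation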
[22] = biological target: Mu-type opioid receptor (Homo sapiens, UniProt P35372); assay: SAR Analysis of Antagonists of the MOR Receptor using an Image-Based Assay - Set 3. [Related pubchem assays (depositor defined):AID1777, AID1785, AID1786, AID1966, AID2133, AID2136, AID2284, AID2285, AID2420]; type: functional
[23] = biological target: T8, Kappa-type opioid receptor (Homo sapiens, UniProt P41145); assay: SAR analysis of Antagonists of the Kappa Opioid Receptor (KOR) using an Image-Based Assay - Set 4. [Related pubchem assays (depositor defined):AID1777, AID1785]; type: functional
[24] = biological target: T8, Kappa-type opioid receptor; assay: SAR analysis of small molecule agonists of the kappa opioid receptor via a luminescent beta-arrestin assay - Set 3. [Related pubchem assays (depositor defined):AID1777, AID1785, AID1786, AID1966, AID2133, AID2136, AID2284, AID2500]; type: functional
[25] = biological target: T9, Tyrosine-protein phosphatase non-receptor type 22 (Homo sapiens, UniProt Q9Y2R2); assay: SAR LYP1 Fluorescent Assay using OMFP substrate for In Vitro dose response studies - Set 3. [Related pubchem assays (depositor defined):AID1779, AID1784, AID2140, AID2686]; type: functional
T9 sequence (Q9Y2R2 whole entry): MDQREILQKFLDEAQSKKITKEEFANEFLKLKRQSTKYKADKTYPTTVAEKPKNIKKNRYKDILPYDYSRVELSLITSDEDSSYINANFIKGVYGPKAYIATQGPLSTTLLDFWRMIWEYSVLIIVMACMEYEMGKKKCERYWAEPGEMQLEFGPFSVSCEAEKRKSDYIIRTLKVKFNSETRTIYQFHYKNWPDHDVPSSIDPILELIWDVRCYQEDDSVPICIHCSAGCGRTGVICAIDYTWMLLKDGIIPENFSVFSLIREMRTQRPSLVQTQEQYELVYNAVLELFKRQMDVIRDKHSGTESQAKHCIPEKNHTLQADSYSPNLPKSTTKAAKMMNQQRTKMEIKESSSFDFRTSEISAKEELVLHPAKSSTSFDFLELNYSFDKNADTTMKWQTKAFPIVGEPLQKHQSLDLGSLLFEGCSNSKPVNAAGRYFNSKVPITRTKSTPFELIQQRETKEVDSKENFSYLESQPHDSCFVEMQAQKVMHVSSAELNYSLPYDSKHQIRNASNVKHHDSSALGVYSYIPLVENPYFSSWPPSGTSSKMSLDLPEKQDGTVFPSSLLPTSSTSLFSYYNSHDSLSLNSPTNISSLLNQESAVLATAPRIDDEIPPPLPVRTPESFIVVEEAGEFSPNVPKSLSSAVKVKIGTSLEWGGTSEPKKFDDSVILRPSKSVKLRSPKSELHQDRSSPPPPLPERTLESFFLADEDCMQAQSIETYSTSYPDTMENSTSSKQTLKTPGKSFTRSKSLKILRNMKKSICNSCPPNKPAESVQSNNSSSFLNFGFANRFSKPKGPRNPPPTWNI

[26] = biological target: T10, Tyrosine-protein phosphatase non-receptor type 7 (Homo sapiens, UniProt P35236); assay: inhibition of hematopoietic tyrosine phosphatase HePTP – biochemical, set 2, SAR follow-up (AID 449736); type: functional
T10 sequence (P35236 whole entry): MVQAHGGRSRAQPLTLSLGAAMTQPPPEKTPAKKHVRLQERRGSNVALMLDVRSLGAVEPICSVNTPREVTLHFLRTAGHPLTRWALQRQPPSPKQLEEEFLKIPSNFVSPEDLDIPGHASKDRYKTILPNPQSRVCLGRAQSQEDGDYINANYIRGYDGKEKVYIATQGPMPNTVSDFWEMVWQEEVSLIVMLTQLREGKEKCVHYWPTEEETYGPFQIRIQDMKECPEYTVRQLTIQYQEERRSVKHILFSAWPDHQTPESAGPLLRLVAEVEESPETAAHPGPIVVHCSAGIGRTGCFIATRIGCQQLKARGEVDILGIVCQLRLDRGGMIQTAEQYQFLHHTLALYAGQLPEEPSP

[27] = biological target: T9, Tyrosine-protein phosphatase non-receptor type 22; assay: SAR LYP1 Fluorescent Assay using pCAP substrate for In Vitro dose response studies - Set 2. [Related pubchem assays (depositor defined):AID1779, AID1784, AID2135, AID449727]; type: functional
[28] = biological target: Tyrosine-protein phosphatase non-receptor type 12 (Homo sapiens, UniProt Q05209); assay: SAR Selectivity Analysis of small molecule inhibitors of PEST using pCAP in a fluorescence assay. [Related pubchem assays (depositor defined):AID1779, AID1784, AID2135]; type: functional
[29] = biological target: T9, Tyrosine-protein phosphatase non-receptor type 22; assay: inhibition of lymphoid tyrosine phosphatase LYP – biochemical, pCAP fluorogenic substrate, fluorescence, set 3, SAR follow-up (AID 449727); type: functional
[30] = biological target: T9, Tyrosine-protein phosphatase non-receptor type 22; assay: SAR LYP1 Fluorescent Assay using OMFP substrate for In Vitro dose response studies - Set 2. [Related pubchem assays (depositor defined):AID1779, AID1784, AID2140, AID449726, AID488869]; type: functional

T6 sequence (Q9HC97 whole entry): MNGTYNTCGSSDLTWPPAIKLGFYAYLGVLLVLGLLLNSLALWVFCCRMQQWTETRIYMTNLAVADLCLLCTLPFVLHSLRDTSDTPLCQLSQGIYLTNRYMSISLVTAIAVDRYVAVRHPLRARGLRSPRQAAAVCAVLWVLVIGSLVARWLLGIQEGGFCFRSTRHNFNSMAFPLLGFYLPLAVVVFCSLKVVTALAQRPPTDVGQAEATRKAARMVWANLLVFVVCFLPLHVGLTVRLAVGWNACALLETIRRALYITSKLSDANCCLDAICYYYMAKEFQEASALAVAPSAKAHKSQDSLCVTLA
T7 sequence (P21554 whole entry): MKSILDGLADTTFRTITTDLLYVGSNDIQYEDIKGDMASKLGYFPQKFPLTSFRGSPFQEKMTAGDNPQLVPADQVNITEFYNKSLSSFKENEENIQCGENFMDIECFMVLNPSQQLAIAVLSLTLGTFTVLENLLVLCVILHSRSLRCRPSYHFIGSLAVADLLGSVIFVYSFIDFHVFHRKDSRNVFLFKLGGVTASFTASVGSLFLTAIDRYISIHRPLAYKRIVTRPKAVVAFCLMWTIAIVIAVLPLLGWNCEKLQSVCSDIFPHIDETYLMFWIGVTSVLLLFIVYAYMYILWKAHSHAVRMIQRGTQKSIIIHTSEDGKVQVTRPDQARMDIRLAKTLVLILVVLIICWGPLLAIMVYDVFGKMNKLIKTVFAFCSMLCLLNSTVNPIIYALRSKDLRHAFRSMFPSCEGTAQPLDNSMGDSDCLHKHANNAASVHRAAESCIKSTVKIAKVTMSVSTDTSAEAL
T5 sequence (P34972 whole entry): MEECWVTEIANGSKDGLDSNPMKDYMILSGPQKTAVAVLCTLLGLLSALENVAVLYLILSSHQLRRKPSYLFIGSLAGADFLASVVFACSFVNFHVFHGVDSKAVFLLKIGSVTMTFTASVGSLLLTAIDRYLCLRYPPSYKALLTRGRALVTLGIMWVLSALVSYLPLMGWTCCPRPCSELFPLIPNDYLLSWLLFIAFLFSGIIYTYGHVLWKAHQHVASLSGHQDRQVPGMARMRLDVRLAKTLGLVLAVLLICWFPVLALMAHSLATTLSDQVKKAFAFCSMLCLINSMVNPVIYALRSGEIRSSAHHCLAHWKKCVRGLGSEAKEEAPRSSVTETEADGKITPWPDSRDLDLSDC
T8 sequence (P41145 whole entry): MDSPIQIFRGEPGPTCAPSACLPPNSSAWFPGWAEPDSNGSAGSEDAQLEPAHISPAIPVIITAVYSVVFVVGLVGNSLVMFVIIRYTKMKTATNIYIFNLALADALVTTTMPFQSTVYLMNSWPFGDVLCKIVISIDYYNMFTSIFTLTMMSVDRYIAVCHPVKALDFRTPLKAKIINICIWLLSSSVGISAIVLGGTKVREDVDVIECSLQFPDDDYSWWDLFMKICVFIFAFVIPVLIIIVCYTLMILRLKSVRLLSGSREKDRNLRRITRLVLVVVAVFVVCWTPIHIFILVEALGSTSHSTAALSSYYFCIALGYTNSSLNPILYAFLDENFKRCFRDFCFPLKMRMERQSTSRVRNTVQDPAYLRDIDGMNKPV
T3 sequence (Q9Y2T6 whole entry): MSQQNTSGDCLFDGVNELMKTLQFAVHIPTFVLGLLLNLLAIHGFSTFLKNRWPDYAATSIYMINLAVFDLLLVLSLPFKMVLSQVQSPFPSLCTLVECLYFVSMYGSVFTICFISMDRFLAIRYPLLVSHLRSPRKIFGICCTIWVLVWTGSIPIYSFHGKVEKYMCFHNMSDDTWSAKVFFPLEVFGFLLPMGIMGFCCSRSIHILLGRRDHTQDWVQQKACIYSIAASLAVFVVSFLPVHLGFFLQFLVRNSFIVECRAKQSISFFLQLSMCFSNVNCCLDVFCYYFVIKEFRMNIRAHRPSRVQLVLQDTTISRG
Chain of Intestinal-type alkaline phosphatase (Mus musculus, UniProt P24822) (P24822 whole entry): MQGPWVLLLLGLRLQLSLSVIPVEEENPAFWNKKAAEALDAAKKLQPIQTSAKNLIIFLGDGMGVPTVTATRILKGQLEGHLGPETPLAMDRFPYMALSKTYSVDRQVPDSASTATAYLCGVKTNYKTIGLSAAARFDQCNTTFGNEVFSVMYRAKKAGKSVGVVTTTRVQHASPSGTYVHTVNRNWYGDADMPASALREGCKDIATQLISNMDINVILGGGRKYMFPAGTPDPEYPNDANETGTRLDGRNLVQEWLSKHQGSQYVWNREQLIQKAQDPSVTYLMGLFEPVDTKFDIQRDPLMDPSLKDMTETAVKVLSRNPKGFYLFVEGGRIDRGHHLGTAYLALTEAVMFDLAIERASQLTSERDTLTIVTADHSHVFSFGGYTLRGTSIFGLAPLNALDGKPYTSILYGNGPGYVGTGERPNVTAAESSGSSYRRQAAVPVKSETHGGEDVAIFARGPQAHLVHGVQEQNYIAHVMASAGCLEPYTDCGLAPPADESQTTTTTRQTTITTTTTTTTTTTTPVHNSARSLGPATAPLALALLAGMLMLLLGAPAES
Chain of Intestinal-type alkaline phosphatase (Homo sapiens, UniProt P09923) (P09923 whole entry): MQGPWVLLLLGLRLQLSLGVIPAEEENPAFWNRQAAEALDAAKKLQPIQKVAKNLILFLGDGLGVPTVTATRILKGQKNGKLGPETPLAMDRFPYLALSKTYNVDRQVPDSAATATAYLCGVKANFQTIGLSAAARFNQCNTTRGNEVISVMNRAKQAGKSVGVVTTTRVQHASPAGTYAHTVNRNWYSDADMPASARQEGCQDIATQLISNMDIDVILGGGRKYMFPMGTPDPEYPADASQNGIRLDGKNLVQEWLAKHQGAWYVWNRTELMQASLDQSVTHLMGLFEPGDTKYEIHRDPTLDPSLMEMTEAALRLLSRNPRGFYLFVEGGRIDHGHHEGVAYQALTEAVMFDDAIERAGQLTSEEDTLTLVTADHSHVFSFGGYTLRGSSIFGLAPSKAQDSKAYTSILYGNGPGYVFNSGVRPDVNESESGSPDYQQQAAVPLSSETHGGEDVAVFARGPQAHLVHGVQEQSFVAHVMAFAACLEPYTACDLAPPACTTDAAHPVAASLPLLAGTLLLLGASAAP
Chain of Polyadenylate-binding protein 1 (P11940 whole entry): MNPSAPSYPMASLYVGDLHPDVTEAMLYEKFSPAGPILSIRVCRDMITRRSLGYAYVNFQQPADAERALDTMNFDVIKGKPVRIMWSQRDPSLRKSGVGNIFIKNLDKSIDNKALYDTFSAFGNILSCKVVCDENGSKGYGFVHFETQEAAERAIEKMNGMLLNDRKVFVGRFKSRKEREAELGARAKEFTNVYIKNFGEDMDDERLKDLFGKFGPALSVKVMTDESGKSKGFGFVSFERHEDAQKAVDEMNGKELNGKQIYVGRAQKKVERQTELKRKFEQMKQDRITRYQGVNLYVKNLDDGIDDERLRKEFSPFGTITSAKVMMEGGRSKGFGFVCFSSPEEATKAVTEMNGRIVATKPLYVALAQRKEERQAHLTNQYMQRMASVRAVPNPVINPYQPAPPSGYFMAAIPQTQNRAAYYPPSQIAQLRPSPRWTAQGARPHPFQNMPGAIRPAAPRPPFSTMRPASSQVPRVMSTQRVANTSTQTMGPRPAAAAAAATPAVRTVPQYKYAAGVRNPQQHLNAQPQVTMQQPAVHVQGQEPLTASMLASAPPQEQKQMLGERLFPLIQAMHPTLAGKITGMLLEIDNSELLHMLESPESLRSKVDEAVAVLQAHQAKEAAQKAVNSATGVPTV
Chain of Caspase-7 (P55210 24-198 limits assumed): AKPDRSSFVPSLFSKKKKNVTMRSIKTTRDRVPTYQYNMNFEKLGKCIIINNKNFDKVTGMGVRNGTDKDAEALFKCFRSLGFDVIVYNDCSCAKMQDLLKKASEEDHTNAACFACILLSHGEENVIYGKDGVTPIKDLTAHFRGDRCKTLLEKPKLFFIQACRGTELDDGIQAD
Chain of Caspase-7 (P55210 207-303 limits assumed): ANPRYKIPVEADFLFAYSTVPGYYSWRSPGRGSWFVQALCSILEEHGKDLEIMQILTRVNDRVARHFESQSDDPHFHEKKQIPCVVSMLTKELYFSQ
Chain of Delta-type opioid receptor (P41143 whole entry): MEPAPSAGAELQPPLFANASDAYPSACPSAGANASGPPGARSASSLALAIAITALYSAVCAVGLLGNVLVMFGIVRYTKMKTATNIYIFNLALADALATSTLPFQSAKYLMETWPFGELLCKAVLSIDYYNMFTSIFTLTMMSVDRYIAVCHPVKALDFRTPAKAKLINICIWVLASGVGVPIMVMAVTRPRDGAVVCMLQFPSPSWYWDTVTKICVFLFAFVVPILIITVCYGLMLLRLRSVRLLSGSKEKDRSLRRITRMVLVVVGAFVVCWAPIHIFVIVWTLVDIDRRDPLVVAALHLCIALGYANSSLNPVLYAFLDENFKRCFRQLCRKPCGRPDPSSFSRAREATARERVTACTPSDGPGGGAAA
Chain of Mu-type opioid receptor (P35372 whole entry): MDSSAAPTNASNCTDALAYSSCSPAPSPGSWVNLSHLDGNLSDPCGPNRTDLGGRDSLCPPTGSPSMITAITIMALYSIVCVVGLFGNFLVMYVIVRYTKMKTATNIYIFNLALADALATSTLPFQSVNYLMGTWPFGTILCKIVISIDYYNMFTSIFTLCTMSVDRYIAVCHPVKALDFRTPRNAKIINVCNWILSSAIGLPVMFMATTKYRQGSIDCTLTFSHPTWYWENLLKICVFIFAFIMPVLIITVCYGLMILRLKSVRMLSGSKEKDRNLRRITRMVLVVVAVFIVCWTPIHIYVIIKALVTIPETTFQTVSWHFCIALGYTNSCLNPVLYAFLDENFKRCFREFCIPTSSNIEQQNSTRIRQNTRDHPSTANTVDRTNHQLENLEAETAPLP

O=C(O)CC(CCc1ccccc1)OC1OC(CO)C(O)C(O)C1O (stereo not given)
AC50 [1]: 0.283 µM (active) | IC50 [2]: 69.4 µM (active) | IC50 [3]: > 94.1 µM (inactive) | IC50 [4]: 23.6 µM (active) | IC50 [5]: 57.6 µM (active) | EC50 [6]: 57.6 µM (active) | AC50 [7]: 30.9 µM (active) | EC50 [8]: 33.7 µM (active) | EC50 [9]: 59.2 µM (active) | IC50 [10]: 50.2 µM (inactive) | IC50 [11]: 1.61 µM (active)

COc1ccc(NS(=O)(=O)c2ccc3nc(COc4cccc5ccccc45)[nH]c3c2)cc1
IC50 [12]: 1.76 µM (active) | EC50 [13]: 6.16 µM (active) | EC50 [14]: > 32 µM (inactive) | EC50 [15]: > 32 µM (inactive) | EC50 [16]: > 32 µM (inactive) | IC50 [17]: 2.24 µM (active) | IC50 [18]: > 32 µM (inactive) | IC50 [19]: > 32 µM (inactive) | IC50 [20]: 1.45 µM (active)

CC(C)OC(=O)C1(N(Cc2ccco2)C(=O)c2ccccn2)CCCCC1
IC50 [21]: > 32 µM (inactive) | IC50 [22]: 15 µM (inactive) | IC50 [23]: > 32 µM (inactive) | EC50 [24]: > 20 µM (inactive)

O=C(O)COc1ccccc1/C=N/NC(=O)c1ccc(-c2csc(Nc3ccc(Cl)cc3)n2)cc1
IC50 [25]: 1.29 µM (active) | IC50 [26]: 0.841 µM (active) | IC50 [27]: 4.1 µM (active) | IC50 [28]: 1.49 µM (active) | IC50 [29]: 3.5 µM (active) | IC50 [30]: 5.67 µM (active)
